In patent US7235588B2, “Method for reducing hypertension and heart failure” (The Research Foundation of State University of New York, priority 2001, dated 2007):

Key:
[1] = test system: hearts subjected to ischemia/reperfusion; conditions: cited from earlier work
[2] = test system: angiotensinogen mRNA; test: Angiotensinogen mRNA in hearts subjected to ischemia/reperfusion (primer extension assay); set-up: species or system rat; conditions: 30 min ischemia and 120 min reperfusion
Description: Ischemia was induced by a modified Langendorf-reperfusion method in rat hearts. Hearts from adult male rats were randomly divided into 4 groups and subjected to ischemia/reperfusion. In the ischemic group, hearts were perfused with Krebs-Henseleit buffer for 60 minutes, followed by 30 minutes of global ischemia. In the ischemic/reperfused group, hearts were perfused for 60 minutes, followed by 30 minutes of global ischemia and 120 minutes of reperfusion. Control group hearts were perfused for the same lengths of time.
Rat hearts subjected to ischemia/reperfusion were tested to determine whether activation of the renin-angiotensin system, as reflected by an increase in angiotensinogen mRNA, occurs in ischemic injury. The level of angiotensinogen mRNA was analyzed by primer extension assay using gene-specific DNA probes. A DNA primer spanning the complementary sequence of the rat angiotensinogen cDNA between nucleotides 302 and 279 (5′-[…]-3′) SEQ ID NO: 1 was end-labeled and used to evaluate the expression of angiotensinogen mRNA in total RNA isolated from the rat heart. The primer extension protocol was performed according to instructions provided by the supplier (Progema). Rat GAPDH cDNA specific primer was used as control. There was a marked increase in mRNA level after 30 minutes of ischemia and 120 minutes of reperfusion (FIG. 5A). […]

[3] = test system: St-domain/STAT binding activity; test: Electrophoretic gel mobility-shift assay of St-domain/STAT binding in heart nuclear extracts; set-up: species or system rat; conditions: hearts, 30 min ischemia/120 min reperfusion
Source text: Nuclear extracts were examined in hearts subjected to global ischemia to determine whether there is enhanced STAT binding activity to the St domain of the angiotensinogen promoter. The nuclear heart extracts were examined by the electrophoretic gel mobility-shift assay that exployed the use of the chemically synthesized oligonucleotide sequence of the St domain. The St-domain DNA probe for protein binding was a double-stranded oligonucleotide containing the sequence 5′-GGGTtcCTGGAAGGG-3′ SEQ. ID NO: 2, and complementary strand 5′-CCCTTCCAGgaACCC-3′ SEQ. ID NO: 3, respectively. These probes were end-labeled by polynucleotide kinase and [γ-^32P]ATP. Binding reaction mixture containing 0.5 ng of labeled DNA (1,000 cpm), 2 μg of poly(dI-C), and 1-12 μg of protein in buffer containing 20 mM Hepes, 3% glycerol, 1.5 mM MgCl2, 1 mM DTT, 2 mM EDTA and 50 mM KCl, pH 7.5 was allowed to incubate at 4° C. for 30 min. The reactions were analyzed by electrophoresis on 8% polyacrylanide gel in 0.375× TBE ([…] Tris borate, pH 8.7 and 1.0 mM EDTA). After electrophoresis, the gels were dried and subjected to autoradiography. […] (FIG. 5B). The activation of STATs and the consequent binding to the St-domain in the angiotensinogen promoter accounts for the increase in transcription of angiotensinogen mRNA. […]

| Structure (SMILES) | cardioprotection / myocardial damage due to ischemia [1] | angiotensinogen mRNA level [2] | St-domain/STAT binding activity (STAT/DNA complex formation) [3] |
| --- | --- | --- | --- |
| N#C/C(=C\c1ccc(O)c(O)c1)C(=O)NCCCCc1ccccc1 [Tyrphostin AG556] | reduces myocardial damage due to ischemia |  |  |
| CCCCc1nc(Cl)c(CO)n1Cc1ccc(-c2ccccc2-c2nn[nH]n2)cc1 [losartan] |  | reduced it almost entirely to the level of the control sample | almost entirely abolished |
